According to the supplement of paper PMC10949913:
Where “and” joins values, the source holds several entries; their conditions need not be identical. Identical values can stand only once.

Columns and labels:
Experiment in all cases: area under concentration-response curve (viability) (AUC (a.u.)); higher = less active
Settings in all cases: 48 h
CU-ACC1 = system: CU-ACC1
Method in brief: (§1)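 Three adrenocortical carcinoma cell lines were seeded at 500–1,000 cells/well in 5 µL medium in 1,536-well plates. 23 nL of each MIPE 5.0 library compound was added at 11 concentrations. After 48 h (per the protocol name), CellTiter-Glo was added for 15 minutes at room temperature and luminescence was read. Signals were normalised per plate to vehicle and empty-well controls. AC50 and area under the curve came from fitted concentration-response curves, keeping only inhibitory or non-responding curve classes.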

NCI-H295R = system: NCI-H295R
Method in brief: as §1

CU-ACC2 = system: CU-ACC2
Method in brief: as §1

Row | Structure (SMILES) | area under concentration-response curve (CU-ACC1) | area under concentration-response curve (NCI-H295R) | area under concentration-response curve (CU-ACC2)
1 | CC[C@H](NC(C)C)[C@H](O)C1=CC=C(O)C2=C1\C=C/C(=O)N2 | 566 | 564 | 650
2 | CC(S)C(=O)NCC(=O)O (stereo not drawn) | 547 | 563 | 632
3 | COc1cc(Nc2ncc(F)c(Nc3ccc4c(n3)NC(=O)C(C)(C)O4)n2)cc(OC)c1OC | 410 | 563 | 612
4 | Cc1oncc1C(=O)Nc1ccc(C(F)(F)F)cc1 | 421 | 481 | 498
5 | CN(CCOc1ccc(C[C@H](Nc2ccccc2C(=O)c2ccccc2)C(=O)O)cc1)c1ccccn1 | 429 and 437 | 388 and 454 | 413
6 | CCOC1=CC=C(C=C1)N2C(=O)C3=CC=CN=C3/N=C2/[C@@H](C)N(CC4=CC=CN=C4)C(=O)CC5=CC=C(F)C(=C5)C(F)(F)F | 516 | 569 | 606
7 | CCNC(=O)CCC/C=C\C[C@@H]1[C@@H](/C=C/C(O)CCc2ccccc2)[C@@H](O)C[C@@H]1O (stereo partly drawn) | 508 | 571 | 646
8 | C1CN\2C[C@@H](\N=C2S1)C3=CC=CC=C3 | 506 | 575 | 626
9 | COc1ccc(C(=O)N2CCN(c3ccc4c(c3)CCC(=O)N4)CC2)cc1OC | 458 | 554 | 562
10 | CC(C)C(=O)Nc1ccc([N+](=O)[O-])c(C(F)(F)F)c1 | 551 | 570 | 627
11 | CN1CCN(C(=O)[C@H]2[C@@H](C(=O)O)[C@H]3CC[C@@H]2O3)CC1 | 628 | 620 | 699
12 | CN(C)N(C)C(=O)[C@@]1(Cc2ccccc2)CCCN(C(=O)[C@@H](Cc2c[nH]c3ccccc23)NC(=O)C(C)(C)N)C1 | 522 | 514 | 525
13 | CN1CCN(CCCNc2ncc(Cl)c(-c3cc4c(C(=O)NC5CC5)cccc4s3)n2)CC1 | 468 | 492 | 557
14 | COc1cc([C@@H](CC(=O)O)c2ccc(C)c(CN3C[C@@H](C)Oc4ccccc4[S+]3(=O)[O-])c2)cc2nnn(C)c12 | 341 | 348 | 295
15 | CCOC(=O)C(C)(C)Oc1ccc(Cl)cc1 | 451 | 444 | 453
16 | CCCCCCCCCCCCCCCC(=O)O[C@@H]1[C@@H](O)[C@@H](O)[C@@H]([C@H](NC(=O)[C@@H]2C[C@@H](CCC)CN2C)[C@H](C)Cl)O[C@@H]1SC.Cl | 489 | 513 | 583
17 | CC1=C(C)C=C(N[S+]([O-])(=O)C2=CC3=C(NC(C4C\C=C/C34)C5=CC=C(C=C5)C(O)=O)C=C2)C=C1 (stereo not drawn) | 525 | 555 | 600
18 | Nc1nc(OC(c2ccc(-c3cccc(F)c3)cc2)C(F)(F)F)cc(-c2ccc(C[C@@H](N)C(=O)O)cc2)n1 (stereo partly drawn) | 464 | 449 | 488
19 | CCN(CCCOc1ccc2c(Nc3cc(CC(=O)Nc4cccc(F)c4)[nH]n3)ncnc2c1)CCOP(=O)(O)O | 471 | 495 | 579
20 | CN[C@@H](C)C(=O)N[C@H](C(=O)N1CCC[C@H]1c1nc(C(=O)c2ccc(F)cc2)cs1)C1CCCCC1 | 525 | 546 | 571
21 | Cc1nnc(N[S+](=O)([O-])c2ccc(N)cc2)s1 | 496 | 546 | 591
22 | NC/1=N/C(=O)C2=C([NH]C=C2CCC3=CC=C(C=C3)C(=O)N[C@@H](CCC(O)=O)C(O)=O)N1 | 523 | 537 | 590
23 | CCCCC(=O)O[C@@]1([C@@H](C)C[C@H]2[C@@H]3CCC/4=C/C(=O)/C=C\[C@]4(C)[C@@]3(F)[C@@H](O)C[C@]12C)C(=O)CO | 455 | 462 | 555

Row | Structure (SMILES) | area under concentration-response curve (CU-ACC1) | area under concentration-response curve (NCI-H295R) | area under concentration-response curve (CU-ACC2)
24 | CC(C)(Oc1ccc(C2CC2(Cl)Cl)cc1)C(=O)O (stereo not drawn) | 502 | 526 | 483
25 | CNc1nc(Nc2cnn([C@H]3CCN(C4COC4)C[C@@H]3F)c2Cl)ncc1C(F)(F)F | 562 | 566 | 604
26 | COc1cc2ncnc(-n3nc(-c4ccccn4)nc3N)c2cc1OC | 458 | 489 | 551
27 | CCCCCOC(=O)NC\1=N\C(=O)N(\C=C1F)[C@@H]2O[C@H](C)[C@@H](O)[C@H]2O | 512 | 559 | 606
28 | O=C(Nc1ccc2c(c1)CCN(Cc1ncn[nH]1)C2)c1ccccc1-c1ccc(C(F)(F)F)cc1 | 374 | 476 | 505
29 | Cn1c(CNc2ccc(C(=N)N)cc2)nc2cc(C(=O)N(CCC(=O)O)c3ccccn3)ccc21 | 715 | 834 | 929
30 | C=CC[N+]1([C@H]2C[C@H]3[C@@H]4CC[C@H]5C[C@H](O)[C@@H](N6CCOCC6)C[C@]5(C)[C@H]4CC[C@]3(C)[C@H]2OC(C)=O)CCCC1 | 597 | 610 | 639
31 | Nc1nc(Cl)nc2c1ncn2[C@H]1C[C@H](O)[C@@H](CO)O1 | 558 | 537 | 601
32 | CC(=O)O[C@H]1C[C@@H]2CC[C@@H]3[C@H](CC[C@@]4(C)[C@H]3C[C@H]([N+]3(C)CCCCC3)[C@@H]4OC(C)=O)[C@@]2(C)C[C@@H]1N1CCCCC1.[Br-] | 562 | 610 | 632
33 | Cn1ncc2cc(-c3cnc(N)c(Cl)c3N3CCC4(CCNC4=O)CC3)ccc21 | 475 | 536 | 484
34 | CC(C)C[C@H](NC(=O)[C@@H](O)[C@H](N)Cc1ccccc1)C(=O)O | 459 | 494 | 571
35 | CCCNC(=O)Nc1ccc(Oc2ncnc3cc(OC)c(OC)cc23)cc1Cl | 332 | 400 | 383
36 | CN1[C@@H]2CCC[C@H]1CC(NC(=O)c1nn(C)c3ccccc13)C2 (stereo partly drawn) | 511 | 490 | 584
37 | CNC(=O)CN1CCC(Oc2cc3c(Nc4cccc(Cl)c4F)ncnc3cc2OC)CC1 | 501 | 570 | 572
38 | CCC(=O)[N-]S(=O)(=O)c1ccc(-c2c(-c3ccccc3)noc2C)cc1.[Na+] | 549 | 595 | 656
39 | O=C1\C=C(/OC2=C1C=CC=C2C3=CC=CC=C3)N4CCOCC4 | 498 | 515 | 550
40 | OCCn1cc(-c2ccc3c(c2)CC/C3=N\O)c(-c2ccncc2)n1 | 492 | 538 | 595
41 | C#C[C@]1(O)CC[C@H]2[C@@H]3CCc4cc(O)ccc4[C@H]3CC[C@@]21C | 525 | 538 | 611
42 | Cc1ccc([S+](=O)([O-])NC(=O)NN2CC3CCCC3C2)cc1 (stereo not drawn) | 537 | 579 | 629
43 | COC(=O)[C@H](c1ccccc1Cl)N1CCc2sccc2C1 | 510 | 521 | 551
44 | CC1=CC=C(C=C1)\C2=N\C3=CC=C(Cl)C=C3OC2 | 504 | 546 | 613
45 | O=C(O)CC(C(=O)O)N1C(=O)/C(=C2/C(=O)Nc3ccc(Br)cc32)SC1=S (stereo not drawn) | 569 | 567 | 593
46 | CC(C)(C)c1cc(C(=O)O)c(NC(=O)Nc2ccc3[nH]ncc3c2)s1 | 551 | 582 | 614
